Where a SMILES comes first, the peptide text is derived from it. Bridges are numbered along the chain shown (N, C = ends). Roman numbers before positions name the chains, in order. [ ]: non-standard residue; d: D form. The star is where a group is joined. NαAmidinoTrp = N=C(N)N[C@@H](Cc1c[nH]c2ccccc12)C(=O)*; Hyp = O=C(O)[C@@H]1C[C@@H](O)CN1; dHyp = O=C(O)[C@H]1C[C@H](O)CN1; NMeDab = CN[C@@H](CCN)C(=O)O; Tle = CC(C)(C)[C@H](N)C(=O)O; dDab = NCC[C@@H](N)C(=O)O; Nle = CCCC[C@H](N)C(=O)O; Orn = NCCC[C@H](N)C(=O)O; Dab = NCC[C@H](N)C(=O)O
How the values were obtained:
Format in all cases: cell-based
[1] = system: Acinetobacter baumannii 872842; conditions: 872842
[2] = system: Acinetobacter baumannii DSM 30008; conditions: DSM 30008
In short: (§1)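 Read-out is the minimal inhibitory concentration in μg/mL, taken as the lowest peptide level without visible growth after 18-20 h at 35° C. Testing followed CLSI broth microdilution in cation-adjusted Mueller-Hinton II broth plus 0.002% Polysorbate 80, with roughly 10^6 CFU/mL.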

Escherichia coli 926415 = conditions: 926415
[3] = system: Escherichia coli ATCC 25922; conditions: ATCC 25922
In short: as §1

[4] = system: Klebsiella pneumoniae 968733; conditions: 968733
[5] = system: Klebsiella pneumoniae SSI #3010; conditions: SSI #3010
In short: as §1

[6] = system: Pseudomonas aeruginosa ATCC 27853; conditions: ATCC 27853
In short: as §1

[7] = system: human red blood cells (hRBC); assay: Hemolysis of human red blood cells; conditions: red cells of human, 1 h
In short: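 Washed fresh human erythrocytes (20% v/v, ~0.9×10^9 cells/mL final) were incubated with peptides at 100 μg/mL for 1 h at 37 °C with shaking. Supernatant OD540 measured; hemolysis expressed as % of 2.5% Triton X-100 lysis, with PBS/0.001% acetic acid as 0%.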

| Structure (SMILES) | Acinetobacter baumannii 872842 MIC [1] [µg/mL] | Acinetobacter baumannii DSM 30008 MIC [2] [µg/mL] | Escherichia coli 926415 MIC (Escherichia coli 926415) [µg/mL] | Escherichia coli ATCC 25922 MIC [3] [µg/mL] | Klebsiella pneumoniae 968733 MIC [4] [µg/mL] | Klebsiella pneumoniae SSI #3010 MIC [5] [µg/mL] | Pseudomonas aeruginosa ATCC 27853 MIC [6] [µg/mL] | Hemolysis at 100 μg/mL ([7]; 100 μg/mL) [%] | Hemolysis at 100 μg/mL [7]; 100 [%] |
| --- | --- | --- | --- | --- | --- | --- | --- | --- | --- |
| CCCC[C@@H]1NC(=O)[C@@H]2CCCN2C(=O)[C@H]2CCCN2C(=O)[C@H](CO)NC(=O)[C@H](CO)NC(=O)[C@H](C(C)(C)C)NC(=O)[C@@H](NC(=O)[C@@H](N)Cc2c[nH]c3ccccc23)CSSC[C@@H](C(=O)N[C@@H](CCCN)C(=O)N[C@H](Cc2ccccc2)C(=O)N[C@H](CCN)C(=O)N[C@H]2CCNC(=O)[C@H]([C@@H](C)O)NC(=O)[C@H](CCN)NC(=O)[C@H](CCN)NC(=O)[C@H](CC(C)C)NC(=O)[C@@H](Cc3ccccc3)NC(=O)[C@H](CCN)NC2=O)NC(=O)[C@H](Cc2ccc(O)cc2)NC(=O)[C@H](CO)NC1=O [Ex. 105] (H-WC[Tle]SS[dP]P[Nle]SYC[Orn][dF][dDab][Dab][Dab][dF]L[Dab][Dab]T; disulfide 2-11; lactam 15-C) | 0.25 | 0.5 | 0.125 | 0.25 | 1 | 0.5 | 1 | 1.7 |  |
| CC(C)C[C@@H]1NC(=O)[C@@H](CC(C)C)NC(=O)[C@H](CCN)NC(=O)[C@@H](NC(=O)[C@H](CCN)NC(=O)[C@@H](NC(=O)[C@H](CCN)NC(=O)[C@H](CCN)NC(=O)[C@@H]2CSSC[C@H](NC(=O)[C@@H](N)Cc3c[nH]c4ccccc34)C(=O)N[C@@H](C(C)C)C(=O)N[C@@H](C)C(=O)N[C@@H](CO)C(=O)N3CCC[C@@H]3C(=O)N3C[C@H](O)C[C@H]3C(=O)N[C@@H](CC(C)C)C(=O)N[C@@H](CO)C(=O)N[C@@H](Cc3ccc(O)cc3)C(=O)N2)[C@@H](C)O)CCNC(=O)[C@H]([C@@H](C)O)NC(=O)[C@H](CCN)NC(=O)[C@H](CCN)NC1=O [Ex. 123] (H-WCVAS[dP][Hyp]LSYC[Dab][Dab]T[Dab][Dab][Dab][dL]L[Dab][Dab]T; disulfide 2-11; lactam 16-C) | 0.0625 | 0.25 | 0.25 | 0.125 | 4 | 0.125 | 1 | <1 |  |
| CC(C)C[C@@H]1NC(=O)[C@H](C)NC(=O)[C@H]2C[C@H](O)CN2C(=O)[C@H](CO)NC(=O)[C@H](C)NC(=O)[C@H](C(C)C)NC(=O)[C@@H](NC(=O)[C@@H](N)Cc2c[nH]c3ccccc23)CSSC[C@@H](C(=O)N[C@@H](CCN)C(=O)N[C@@H](CCN)C(=O)N[C@H](C(=O)N[C@@H](CCN)C(=O)N[C@H]2CCNC(=O)[C@H]([C@@H](C)O)NC(=O)[C@H](CCN)NC(=O)[C@H](CCN)NC(=O)[C@H](CC(C)C)NC(=O)[C@@H](CC(C)C)NC(=O)[C@H](CCN)NC2=O)[C@@H](C)O)NC(=O)[C@H](Cc2ccc(O)cc2)NC(=O)[C@H](CO)NC1=O [Ex. 129] (H-WCVAS[dHyp]ALSYC[Dab][Dab]T[Dab][Dab][Dab][dL]L[Dab][Dab]T; disulfide 2-11; lactam 16-C) | 0.0625 | 0.125 | 0.25 | 0.0625 | 2 | 0.125 | 0.125 | <1 |  |
| CC(C)C[C@@H]1NC(=O)[C@@H](CC(C)C)NC(=O)[C@H](CCN)NC(=O)[C@@H](NC(=O)[C@H](CCN)NC(=O)[C@@H](NC(=O)[C@H](CCN)N(C)C(=O)CC[C@@H]2NC(=O)[C@H](CCN)NC(=O)[C@H](Cc3ccc(O)cc3)NC(=O)[C@H](CO)NC(=O)[C@H](CC(C)C)NC(=O)[C@@H]3CCCN3C(=O)[C@H]3CCCN3C(=O)[C@H](CO)NC(=O)[C@H]([C@@H](C)O)NC(=O)[C@H](C(C)C)NC(=O)[C@H](CCN)NC(=O)[C@H](Cc3c[nH]c4ccccc34)NC(=O)[C@H](CCN)NC(=O)[C@@H](CCN)NC2=O)[C@@H](C)O)CCNC(=O)[C@H]([C@@H](C)O)NC(=O)[C@H](CCN)NC(=O)[C@H](CCN)NC1=O [Ex. 89] (I: cyclo(LSY[Dab]E[dDab][Dab]W[Dab]VTS[dP]P) / II: [NMeDab]T[Dab][Dab][Dab][dL]L[Dab][Dab]T; amide I:5-II:N; lactam II:4-II:C) | 1 | 0.125 | 1 | 0.125 | 0.5 | 0.25 | 0.25 |  | 1 |
| CC(C)C[C@@H]1NC(=O)[C@@H](CC(C)C)NC(=O)[C@H](CCN)NC(=O)[C@@H](NC(=O)[C@H](CCN)NC(=O)[C@@H](NC(=O)[C@H](CCN)NC(=O)[C@@H](C)NC(=O)[C@@H]2CSSC[C@H](NC(=O)[C@H](Cc3c[nH]c4ccccc34)NC(=N)N)C(=O)N[C@@H](C(C)C)C(=O)N[C@@H](C)C(=O)N[C@@H](CO)C(=O)N3CCC[C@@H]3C(=O)N3CCC[C@H]3C(=O)N[C@@H](CC(C)C)C(=O)N[C@@H](CO)C(=O)N[C@@H](Cc3ccc(O)cc3)C(=O)N2)[C@@H](C)O)CCNC(=O)[C@H]([C@@H](C)O)NC(=O)[C@H](CCN)NC(=O)[C@H](CCN)NC1=O [Ex. 135] (NαAmidinoTrp-CVAS[dP]PLSYC[dA][Dab]T[Dab][Dab][Dab][dL]L[Dab][Dab]T; disulfide 1-10; lactam 15-C) | 0.5 | 0.25 | 1 | 0.125 | 8 | 0.5 | 0.5 | 1 |  |
| CC(C)C[C@@H]1NC(=O)[C@@H](CC(C)C)NC(=O)[C@H](CCN)NC(=O)[C@@H](NC(=O)[C@H](CCN)NC(=O)[C@H](CCN)NC(=O)[C@@H](NC(=O)[C@H](CCCN)NC(=O)[C@@H]2CSSC[C@H](NC(=O)[C@@H](N)Cc3c[nH]c4ccccc34)C(=O)N[C@@H](C(C)C)C(=O)N[C@@H](Cc3ccc(O)cc3)C(=O)N[C@@H](CO)C(=O)N3CCC[C@@H]3C(=O)N3CCC[C@H]3C(=O)N[C@@H](CC(C)C)C(=O)N[C@@H](CC(=O)O)C(=O)N[C@@H](Cc3ccc(O)cc3)C(=O)N2)[C@@H](C)O)CCNC(=O)[C@H]([C@@H](C)O)NC(=O)[C@H](CCN)NC(=O)[C@H](CCN)NC1=O [Ex. 151] (H-WCVYS[dP]PLDYC[Orn]T[Dab][Dab][Dab][Dab][dL]L[Dab][Dab]T; disulfide 2-11; lactam 16-C) | 0.5 | 1 | 2 | 0.25 | 8 | 1 | 0.5 | <1 |  |
| CC(=O)N[C@@H](Cc1c[nH]c2ccccc12)C(=O)N[C@H]1CSSC[C@@H](C(=O)N[C@@H](CCCN)C(=O)N[C@H](C(=O)N[C@@H](CCN)C(=O)N[C@@H](CCN)C(=O)N[C@H]2CCNC(=O)[C@H]([C@@H](C)O)NC(=O)[C@H](CCN)NC(=O)[C@H](CCN)NC(=O)[C@H](CC(C)C)NC(=O)[C@@H](Cc3ccccc3)NC(=O)[C@H](CCN)NC2=O)[C@@H](C)O)NC(=O)[C@H](Cc2ccc(O)cc2)NC(=O)[C@H](CO)NC(=O)[C@H]([C@@H](C)O)NC(=O)[C@@H]2CCCN2C(=O)[C@H]2CCCN2C(=O)[C@H](Cc2ccc(O)cc2)NC(=O)[C@H](C)NC(=O)[C@H](C(C)(C)C)NC1=O [Ex. 144] (Ac-WC[Tle]AY[dP]PTSYC[Orn]T[Dab][Dab][Dab][Dab][dF]L[Dab][Dab]T; disulfide 2-11; lactam 16-C) | 0.25 | 0.125 | 0.5 | 0.25 | 1 | 0.25 | 0.25 | 4 |  |
| CCCC[C@@H]1NC(=O)[C@@H]2CCCN2C(=O)[C@H]2CCCN2C(=O)[C@H](CO)NC(=O)[C@H](C)NC(=O)[C@H](C(C)(C)C)NC(=O)[C@H](CCN)NC(=O)[C@H](Cc2c[nH]c3ccccc23)NC(=O)[C@@H](NC(C)=O)CSSC[C@@H](C(N)=O)NC(=O)[C@H](CCC(=O)N[C@H](CCN)C(=O)N[C@H]2CCNC(=O)[C@H]([C@@H](C)O)NC(=O)[C@H](CCN)NC(=O)[C@H](CCN)NC(=O)[C@H](CC(C)C)NC(=O)[C@@H](Cc3ccccc3)NC(=O)[C@H](CCN)NC2=O)NC(=O)[C@H](CCN)NC(=O)[C@H](Cc2ccc(O)cc2)NC(=O)[C@H](CO)NC1=O [Ex. 194] (I: Ac-CW[Dab][Tle]AS[dP]P[Nle]SY[Dab]EC-NH2 / II: [dDab][Dab][Dab][dF]L[Dab][Dab]T; disulfide I:1-I:14; amide I:13-II:N; lactam II:2-II:C) | 2 | 0.5 | 1 | 0.25 | 2 | 0.5 | 2 | <1 |  |
